From publication PMC3448856 (Biochemistry, 2012)
Values joined by “and” are separate entries in the source; they are usually repeats but may differ in a detail not shown here. Identical values can stand only once. Peptide text beside a SMILES is read from it. * marks the point of attachment. Tos = Cc1ccc(S(=O)(=O)*)cc1; Bn = c1ccc(C*)cc1

Assays:
[1] = test system: self-complementary sequence 5′-GAGAGCGCTCTC; assay: UV melting, self-complementary DNA; format: binding; conditions: TM without compound 36.4 °C
[2] = molecular target: APE-1 activity in T98G cell nuclear lysates (Homo sapiens, UniProt P27695); assay: Molecular beacon assay with T98G cell nuclear lysates; format: biochemical; conditions: EC2nM APE-1 activity
APE-1 activity in T98G cell nuclear lysates, sequence (P27695 whole entry, stated change not applied): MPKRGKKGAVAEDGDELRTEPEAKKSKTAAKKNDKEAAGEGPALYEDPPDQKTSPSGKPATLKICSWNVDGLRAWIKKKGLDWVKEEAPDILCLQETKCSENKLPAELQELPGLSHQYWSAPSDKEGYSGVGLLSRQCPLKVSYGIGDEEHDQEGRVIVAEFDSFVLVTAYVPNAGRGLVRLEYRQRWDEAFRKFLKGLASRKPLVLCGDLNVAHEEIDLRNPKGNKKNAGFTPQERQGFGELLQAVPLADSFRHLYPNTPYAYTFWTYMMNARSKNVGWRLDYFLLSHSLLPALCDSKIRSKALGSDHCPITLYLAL

T98G cells [3] = assay: Long term; format: cell-based, human
T98G cells [4] = assay: Potentiation of MeLex cytotoxicity, long term; format: cell-based, human; conditions: long term assay; for LD50 of MeLex in the presence of LD10 concentration of inhibitor: MeLex alone 9.9 μM
APE-1 [5] = molecular target: T1, APE-1 (Homo sapiens, UniProt P27695); assay: Gel-based assay for APE-1 inhibitors; format: biochemical; conditions: in gel excision assay; 20 nM APE-1, 100 nM duplex DNA with THF abasic site
T1 sequence (P27695 whole entry): as the sequence (P27695 whole entry, stated change not applied) above

T98G cells [6] = assay: Potentiation of MeLex cytotoxicity, short-term; format: cell-based, human; conditions: for LD50 of MeLex in the presence of LD10 concentration of inhibitor: 72 h MTS assay, MeLex by itself 267 μM
T98G cells [7] = assay: Short term; format: cell-based, human; conditions: for LD10 concentration: 72 h MTS assay
[8] = test system: hairpin with the THF abasic site; assay: UV melting, hairpin with THF abasic site; format: binding
T98G cells [9] = assay: Quantification of abasic sites; conditions: for level of aldehyde reactive sites (ARS): 0.25 μM compound alone, up to 18 h, background 1/10^5 nucleotides; for level of ARS in combination with MeLex: 80 μM MeLex + 0.25 μM compound, through at least 12 h
APE-1 [10] = molecular target: T1, APE-1; assay: Molecular beacon assay for APE-1 endonuclease inhibition; format: biochemical; conditions: endonuclease activity; cells printed ND
unmodified hairpin DNA = assay: EtBr fluorescence titration with unmodified hairpin DNA; format: binding; conditions: unmodified hairpin DNA (data not shown)
double-stranded DNA = conditions: cited from earlier work
THF modified hairpin DNA = assay: EtBr fluorescence titration with THF modified hairpin DNA; format: binding; conditions: THF modified hairpin DNA (data not shown)
DNA with a bulge = conditions: cited from earlier work
VERA kidney cell line = conditions: read-out: IC50 for the toxicity; cited from earlier work
[11] = test system: HEYC-2 ovarian tumor cells; conditions: read-out: IC50 for cell growth; cited from earlier work
APE-1 [12] = molecular target: T1, APE-1; assay: Fluorescence binding of 4 to APE-1 and displacement by E3330; conditions: displacement of 6 μM 4 from 1 μM APE-1
[13] = test system: APE-1 endonuclease activity; conditions: at 100 μM concentration; cited from earlier work
[14] = test system: SKOV-3X ovarian tumor cells; conditions: read-out: IC50 for cell growth; cited from earlier work
APE-1 redox = conditions: read-out: IC50 for redox inhibition; cited from earlier work

CCn1c2ccccc2c2cc(/C=N/Nc3cc(C)nc4cc5c(cc34)OCO5)ccc21 [Compound 4]
TM of DNA in presence of compound [1]: 37.3 °C | Ki [2]: 0.21 µM | LD50 (T98G cells [3]; long term (10-day) assay, called clonogenic): 0.19 µM | LD10 concentration (T98G cells [3]; long term assay): 0.08 µM | potentiation of MeLex toxicity (T98G cells [4]; LD10 concentration of inhibitor): approximately 5 fold | LD50 of MeLex in the presence of LD10 concentration of inhibitor (T98G cells [4]): 1.6 µM | IC50 (APE-1 [5]): 4.1 µM | LD50 of MeLex in the presence of LD10 concentration of inhibitor (T98G cells [6]): 49 µM | potentiation of MeLex toxicity (fold more sensitive) (T98G cells [6]; short term assay, LD10 concentration of inhibitor): approximately 5 fold | LD50 (T98G cells [7]; 3-day MTS assay): 0.96 µM | LD10 concentration (T98G cells [7]): 0.25 µM | increase in stability (TM) of hairpin [8]: not appreciably | level of aldehyde reactive sites (ARS) (T98G cells [9]): approximately 17 ARS/10^5 nucleotides | level of ARS in combination with MeLex (T98G cells [9]): 63 sites/10^5 nucleotides

CCOC(=O)CC/C(=C\NC(=O)c1ccccc1)NC(=O)c1ccccc1 [Compound 26]
Ki (APE-1 [10]): > 100 µM

CC(N)C(=O)NC1C(CO)OC(n2cnc3c(N)ncnc32)C1O (stereo not drawn) [Compound 17]
Ki (APE-1 [10]): > 100 µM

CC(NC(=O)/C(=C\c1ccccc1)NC(=O)c1ccccc1)c1ccccc1 (stereo not drawn) [Compound 22]
Ki (APE-1 [10]): > 100 µM

CNC(=O)Oc1cc([N+](C)(C)C)ccc1C [Compound 21]
Ki (APE-1 [10]): > 100 µM

Cc1ccc(S(=O)(=O)NC(CSCc2ccccc2)C(=O)NC(Cc2ccc(O)cc2)C(=O)O)cc1 (stereo not drawn) [Compound 25] (Tos-Cys(Bn)-Tyr-OH; configuration not given here)
Ki (APE-1 [10]): > 100 µM

O=C(NNc1ccnc2cc(Cl)ccc12)/C(=C/c1ccccc1Cl)NC(=O)c1ccccc1 [Compound 15]
Ki (APE-1 [10]): > 100 µM

CC[n+]1c(-c2ccccc2)c2cc(N)ccc2c2ccc(N)cc21 [EtBr, ethidium bromide]
Kd (unmodified hairpin DNA): 1.6 µM | Kd (double-stranded DNA): ~1 µM | Kd (THF modified hairpin DNA): 1.8 µM | stronger binding to DNA with a bulge than to double-stranded DNA (DNA with a bulge): ~10 fold | level of aldehyde reactive sites (ARS) (T98G cells [9]): no affect | level of ARS in combination with MeLex (T98G cells [9]): dropped off

Cc1cc(N/N=C/c2ccc3c(c2)OCO3)c2cc3c(cc2n1)OCO3 [Compound 3]
IC50 (APE-1 [5]): 2.9 µM | IC50 (VERA kidney cell line): 0.63 µM

COc1cccc(/C=N/Nc2cc(C)nc3cc4c(cc23)OCO4)c1 [Compound 2]
Ki [2]: 0.24 µM | IC50 (APE-1 [5]): 10.1 µM

C/C(=N\Nc1cc(C)nc2cc3c(cc12)OCO3)c1cn(C)n(-c2ccccc2)c1=O [Compound 1]
TM of DNA in presence of compound [1]: 40.8 °C | Ki [2]: 0.45 µM | LD10 concentration (T98G cells [3]; long term assay): 0.17 µM | LD50 of MeLex in the presence of LD10 concentration of inhibitor (T98G cells [4]): 2.0 µM | IC50 (APE-1 [5]): 4.4 µM | LD50 of MeLex in the presence of LD10 concentration of inhibitor (T98G cells [6]): 54 µM | LD10 concentration (T98G cells [7]): 2.20 µM | increase in stability (TM) of hairpin [8]: > 9 °C | level of ARS in combination with MeLex (T98G cells [9]): 50 sites/10^5 nucleotides

Nc1ncnc2c1ncn2C1OC(C(=O)NCC(=O)O)C(O)C1O (stereo not drawn) [Compound 16]
Ki (APE-1 [10]): > 100 µM

CCCCCCCCC/C(=C\C1=C(C)C(=O)C(OC)=C(OC)C1=O)C(=O)O [Compound E3330, (2E)-2-[(4,5-dimethoxy-2-methyl-3,6-dioxo-1,4-cyclohexadien-1-yl)methylene]undecanoic acid]
LD50 of MeLex in the presence of LD10 concentration of inhibitor (T98G cells [4]): little or no contribution | IC50 [11]: ~35 µM | E3330 concentration for approximately 50% decrease in the fluorescence of 4 (APE-1 [12]): approximately 12 μM | inhibition of APE-1 endonuclease activity [13]: 3 fold | LD50 of MeLex in the presence of LD10 concentration of inhibitor (T98G cells [6]): 128 µM | level of aldehyde reactive sites (ARS) (T98G cells [9]): returned to control levels by 18 h | level of ARS in combination with MeLex (T98G cells [9]): dropped off | IC50 [14]: ~35 µM | IC50 (APE-1 redox): 10 µM

COc1ccc2c(C)cc(N/N=C(\C)c3cn(C)n(-c4ccccc4)c3=O)nc2c1 [Compound 8]
Ki (APE-1 [10]): > 100 µM | IC50 (APE-1 [5]): > 100 µM | level of aldehyde reactive sites (ARS) (T98G cells [9]): same as background

methyl 3-(1-methyl-5-(1-methyl-5-(propylcarbamoyl)-1H-pyrrol-3-ylcarbamoyl)-1H-pyrrol-3-ylamino)-3-oxopropane-1-sulfonate [MeLex, reference compound]
LD50 (T98G cells [3]; long term assay, compound alone): 12 µM and 9.9 µM | LD50 (T98G cells [7]; short term (72 h) MTS assay, compound alone): 250 µM and 267 µM | induction of ARS (T98G cells [9]; 80 μM MeLex, through the first 4 h): 36 /10^5 nucleotides

Cc1cc(N/N=C/c2c(C)n(C)n(-c3ccccc3)c2=O)c2cc3c(cc2n1)OCO3 [Compound 5]
Ki [2]: 1.41 µM | LD10 concentration (T98G cells [3]; long term assay): 0.90 µM | LD50 of MeLex in the presence of LD10 concentration of inhibitor (T98G cells [4]): 3.6 µM | IC50 (APE-1 [5]): 34.4 µM | LD50 of MeLex in the presence of LD10 concentration of inhibitor (T98G cells [6]): 80 µM | LD10 concentration (T98G cells [7]): 6.50 µM | fold less toxic than 4 (T98G cells [7]; assay (short or long term) not stated): ~20 fold | increase in ARS above background (T98G cells [9]; 0.25 μM compound): approximately 4 fold
